Experimental data from patent US8871753B2, “Macrocyclic compounds and their use as kinase inhibitors” (Incyte Corporation, priority 2008, dated 2014).
Structures can show the parent of a compound that is named as a salt. Where two headings read alike, the source gives them in different places.

Experiments:
Format in all cases: biochemical
[1] = target: T1, human JAK2 (a.a. 828-1132) (Homo sapiens, UniProt O60674); test: In vitro JAK kinase assay (HTRF, phosphorylation of a biotinylated peptide), JAK2
T1 construct: JAK2 (a.a. 828-1132); His tag (N); made in house; host or cells: insect cells (baculovirus)
T1 sequence (O60674 828-1132): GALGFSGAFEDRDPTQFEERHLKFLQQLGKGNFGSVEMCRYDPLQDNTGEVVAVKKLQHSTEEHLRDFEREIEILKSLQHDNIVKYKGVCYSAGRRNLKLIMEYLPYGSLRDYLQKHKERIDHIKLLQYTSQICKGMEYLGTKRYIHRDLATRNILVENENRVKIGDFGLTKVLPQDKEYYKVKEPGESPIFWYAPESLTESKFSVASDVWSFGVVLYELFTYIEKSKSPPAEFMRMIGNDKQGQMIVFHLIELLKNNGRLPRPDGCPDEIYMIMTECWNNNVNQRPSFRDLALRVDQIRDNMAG
Summary of the method: (§1)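 Kinase activity was measured as phosphorylation of a biotinylated peptide, with ATP at 90 μM for JAK1, 30 μM for JAK2 and 3 μM for JAK3. Reactions ran 1 hr at room temperature, were stopped with EDTA plus SA-APC and Eu-Py20, and were read by HTRF after 40 minutes of antibody binding.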

[2] = target: T2, human JAK1 (a.a. 837-1142) (Homo sapiens, UniProt P23458); test: In vitro JAK kinase assay (HTRF, phosphorylation of a biotinylated peptide), JAK1; conditions: read-out: JAK1 IC50
T2 construct: human JAK1 (a.a. 837-1142); His tag (N); made in house; host or cells: insect cells (baculovirus)
T2 sequence (P23458 849-1154): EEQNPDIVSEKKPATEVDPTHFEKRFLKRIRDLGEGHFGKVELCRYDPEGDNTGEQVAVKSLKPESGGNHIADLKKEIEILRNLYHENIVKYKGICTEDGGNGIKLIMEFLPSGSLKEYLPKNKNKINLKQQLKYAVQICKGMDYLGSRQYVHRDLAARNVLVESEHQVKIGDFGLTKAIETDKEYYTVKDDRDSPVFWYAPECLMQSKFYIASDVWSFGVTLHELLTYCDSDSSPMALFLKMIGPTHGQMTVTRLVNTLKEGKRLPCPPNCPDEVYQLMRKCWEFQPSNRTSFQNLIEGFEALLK
Summary of the method: as §1

[3] = target: T3, human JAK3 (a.a. 781-1124) (Homo sapiens, UniProt P52333); test: In vitro JAK kinase assay (HTRF, phosphorylation of a biotinylated peptide), JAK3
T3 construct: JAK3 (a.a. 781-1124); His tag (N); made in house; host or cells: insect cells (baculovirus)
T3 sequence (P52333 781-1124): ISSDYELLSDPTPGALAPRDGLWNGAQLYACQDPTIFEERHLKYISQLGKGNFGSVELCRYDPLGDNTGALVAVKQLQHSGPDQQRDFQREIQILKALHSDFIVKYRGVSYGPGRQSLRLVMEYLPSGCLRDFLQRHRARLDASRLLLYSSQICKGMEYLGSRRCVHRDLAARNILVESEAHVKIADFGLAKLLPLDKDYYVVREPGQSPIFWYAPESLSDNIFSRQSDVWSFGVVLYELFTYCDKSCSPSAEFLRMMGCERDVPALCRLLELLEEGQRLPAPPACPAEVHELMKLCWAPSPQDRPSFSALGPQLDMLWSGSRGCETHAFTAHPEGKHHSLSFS
Summary of the method: as §1

[4] = target: T4, Recombinant Human Anaplastic Lymphoma Kinase (Homo sapiens, UniProt Q9UM73); test: ALK HTRF kinase assay; conditions: for IC50: Table D1
T4 construct: purchased Invitrogen, Carlsbad, Calif
T4 sequence (Q9UM73 19-1620): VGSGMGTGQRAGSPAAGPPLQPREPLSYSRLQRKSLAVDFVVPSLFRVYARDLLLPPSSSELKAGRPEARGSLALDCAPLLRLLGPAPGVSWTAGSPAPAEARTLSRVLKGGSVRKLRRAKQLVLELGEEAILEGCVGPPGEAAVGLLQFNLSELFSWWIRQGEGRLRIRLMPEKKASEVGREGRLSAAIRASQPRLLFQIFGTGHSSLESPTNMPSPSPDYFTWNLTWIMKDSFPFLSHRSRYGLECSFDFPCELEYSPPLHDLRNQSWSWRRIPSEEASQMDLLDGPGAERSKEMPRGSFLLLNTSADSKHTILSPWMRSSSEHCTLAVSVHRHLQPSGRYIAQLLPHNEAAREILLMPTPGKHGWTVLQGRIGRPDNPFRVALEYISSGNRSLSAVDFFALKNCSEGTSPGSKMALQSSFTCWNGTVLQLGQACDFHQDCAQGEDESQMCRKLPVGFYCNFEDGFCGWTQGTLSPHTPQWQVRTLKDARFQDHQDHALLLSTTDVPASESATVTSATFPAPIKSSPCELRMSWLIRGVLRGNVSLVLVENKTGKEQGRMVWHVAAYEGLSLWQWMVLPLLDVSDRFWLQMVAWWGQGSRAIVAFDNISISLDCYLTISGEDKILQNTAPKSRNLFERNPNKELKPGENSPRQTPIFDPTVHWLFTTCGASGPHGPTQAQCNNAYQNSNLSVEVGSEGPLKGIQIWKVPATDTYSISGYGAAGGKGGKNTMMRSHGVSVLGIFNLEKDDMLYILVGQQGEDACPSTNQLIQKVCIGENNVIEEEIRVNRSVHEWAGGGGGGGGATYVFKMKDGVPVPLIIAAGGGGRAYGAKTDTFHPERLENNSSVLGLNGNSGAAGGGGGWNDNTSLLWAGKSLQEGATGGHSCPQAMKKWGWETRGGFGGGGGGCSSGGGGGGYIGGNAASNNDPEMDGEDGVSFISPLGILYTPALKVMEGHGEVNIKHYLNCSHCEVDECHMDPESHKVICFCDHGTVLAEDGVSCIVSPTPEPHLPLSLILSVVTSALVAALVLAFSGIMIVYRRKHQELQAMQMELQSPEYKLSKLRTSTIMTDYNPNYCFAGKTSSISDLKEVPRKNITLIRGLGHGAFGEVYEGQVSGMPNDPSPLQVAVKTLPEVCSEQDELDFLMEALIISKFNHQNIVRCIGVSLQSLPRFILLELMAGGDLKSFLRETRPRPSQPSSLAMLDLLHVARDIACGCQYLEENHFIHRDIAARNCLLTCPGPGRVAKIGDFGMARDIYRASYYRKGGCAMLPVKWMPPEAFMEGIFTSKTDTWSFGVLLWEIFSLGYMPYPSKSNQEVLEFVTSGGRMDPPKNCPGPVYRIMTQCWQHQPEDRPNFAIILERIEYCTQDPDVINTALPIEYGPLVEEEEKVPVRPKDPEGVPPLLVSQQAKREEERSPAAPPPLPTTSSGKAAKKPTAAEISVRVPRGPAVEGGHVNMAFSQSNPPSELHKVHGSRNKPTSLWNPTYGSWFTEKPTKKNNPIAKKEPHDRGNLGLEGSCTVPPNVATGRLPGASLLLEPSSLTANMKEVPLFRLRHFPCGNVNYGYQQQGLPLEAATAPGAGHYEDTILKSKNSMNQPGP
Summary of the method: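 Readout was HTRF between a Eu-W1024 anti-phosphotyrosine antibody and streptavidin-APC bound to biotinylated peptide phosphorylated by recombinant human ALK. IC50 values came from a four-parameter logistic fit.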

TYK2 = TYK2 (Homo sapiens, UniProt P29597); test: TYK2 kinase inhibition (Table A1)
TYK2, sequence (P29597 whole entry): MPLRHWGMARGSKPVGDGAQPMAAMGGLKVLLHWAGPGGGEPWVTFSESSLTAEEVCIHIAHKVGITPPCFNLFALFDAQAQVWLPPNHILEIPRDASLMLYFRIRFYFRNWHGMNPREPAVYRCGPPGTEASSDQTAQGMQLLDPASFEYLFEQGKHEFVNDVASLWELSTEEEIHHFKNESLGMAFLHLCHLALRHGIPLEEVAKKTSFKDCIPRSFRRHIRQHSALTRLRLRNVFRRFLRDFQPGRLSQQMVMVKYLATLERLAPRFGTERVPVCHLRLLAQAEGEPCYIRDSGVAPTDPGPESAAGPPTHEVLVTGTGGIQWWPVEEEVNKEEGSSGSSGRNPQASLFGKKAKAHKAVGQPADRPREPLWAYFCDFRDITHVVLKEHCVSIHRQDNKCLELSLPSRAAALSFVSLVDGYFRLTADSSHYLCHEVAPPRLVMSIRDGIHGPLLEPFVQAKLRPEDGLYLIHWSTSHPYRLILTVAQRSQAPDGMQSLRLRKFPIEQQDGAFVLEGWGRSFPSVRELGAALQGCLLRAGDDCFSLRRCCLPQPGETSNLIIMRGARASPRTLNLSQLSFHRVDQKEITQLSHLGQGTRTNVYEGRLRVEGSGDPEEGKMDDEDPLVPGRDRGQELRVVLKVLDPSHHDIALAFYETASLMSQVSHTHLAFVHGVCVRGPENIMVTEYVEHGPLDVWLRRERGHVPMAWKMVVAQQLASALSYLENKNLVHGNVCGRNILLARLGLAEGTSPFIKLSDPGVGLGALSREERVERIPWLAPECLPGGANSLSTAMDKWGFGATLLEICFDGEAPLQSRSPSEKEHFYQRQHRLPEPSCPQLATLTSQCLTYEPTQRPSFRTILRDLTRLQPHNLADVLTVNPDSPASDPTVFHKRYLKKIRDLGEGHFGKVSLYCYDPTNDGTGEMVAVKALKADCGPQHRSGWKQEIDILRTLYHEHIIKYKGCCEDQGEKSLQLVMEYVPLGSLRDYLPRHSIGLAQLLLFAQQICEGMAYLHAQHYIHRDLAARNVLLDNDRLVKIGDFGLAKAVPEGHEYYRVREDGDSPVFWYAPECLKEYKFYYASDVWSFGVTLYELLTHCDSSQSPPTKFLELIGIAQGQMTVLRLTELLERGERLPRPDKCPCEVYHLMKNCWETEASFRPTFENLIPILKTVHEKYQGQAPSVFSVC

[5] = compound at a concentration of 500 nM or 1 mM (not specified), cells shown as percentage
[6] = percentage inhibition of the example compound at a concentration of 500 nM or 1 mM (not specified which)
[7] = method AA1 (30 μM ATP) or AA2 (1000 μM ATP), not stated per value
[8] = method AA1 (90 μM ATP) or AA2 (1000 μM ATP), not stated per value
[9] = method AA1 (3 μM ATP) or AA2 (1000 μM ATP), not stated per value
[10] = compound at 500 nM or 1 mM, 90 μM ATP

## CN(C)c1ccc(C(=O)Nc2ccc3cc2CCc2cccc(c2)Nc2ncc(Cl)c(n2)N3)cc1 [Example B82, N-[6-Chloro-2,4,8,22-tetraazatetracyclo[14.3.1.1(3,7).1(9,13)]docosa-1(20), 3(22),4,6,9(21),10,12,16,18-nonaen-12-yl]-4-(dimethylamino)benzamide bis(trifluoroacetate)]
[1]; Table B1
  IC50: 7.6 nM
[2]; Table B1
  IC50: 7.9 nM
[3]; Table B1
  IC50: 44 nM
[4]; [5]
  ALK % of inhibition at a concentration of 500 nM or 1 mM: 39%
TYK2; Table B1
  IC50: 14 nM

## CCS(=O)(=O)NCCNC(=O)Nc1ccc2cc1CCc1cccc(c1)Nc1ncc(Cl)c(n1)N2 [Example B325, N-{2-[({[6-Chloro-2,4,8,22-tetraazatetracyclo[14.3.1.1(3,7).1(9,13)]docosa-1(20),3(22),4,6,9(21),10,12,16,18-nonaen-12-yl]amino}carbonyl)amino]ethyl}ethanesulfonamide trifluoroacetate]
[1]; Table B1
  IC50: 1.6 nM
[2]; Table B1
  IC50: 2 nM
[3]; Table B1
  IC50: 6.4 nM
[4]; [6]
  ALK % of inhibition at a concentration of 500 nM or 1 mM: 19%
TYK2; Table B1
  IC50: 5.5 nM

## CC(C)c1oncc1C(=O)N1CCC(CC(=O)Nc2ccc3cc2CCc2cncc(c2)Nc2ncc(Cl)c(n2)N3)CC1 [Example A218, N-[6-Chloro-2,4,8,18,22-pentaazatetracyclo[14.3.1.1(3,7).1(9,13)]docosa-1(20),3(22),4,6,9(21),10,12,16,18-nonaen-12-yl]-2-{1-[(5-isopropylisoxazol-4-yl)carbonyl]piperidin-4-yl}acetamide bis(trifluoroacetate)]
[1]; [7]
  IC50: > 200 nM
[2]; [8]
  IC50: 74 nM
[3]; [9]
  IC50: > 200 nM
[4]; [10]
  ALK % of inhibition at a concentration of 500 nM or 1 mM: 26%
TYK2
  IC50: > 200 nM

## Clc1cnc2nc1Nc1ccc(CN[C@@H]3CCNC3)c(c1)CCc1cccc(c1)N2 [Example B222, (3R)—N-{[6-Chloro-2,4,8,22-tetraazatetracyclo[14.3.1.1(3,7).1(9,13)]docosa-1(20),3(22),4,6,9(21),10,12,16,18-nonaen-12-yl]methyl}pyrrolidin-3-amine tris(trifluoroacetate)]
[1]; Table B1
  IC50: 14 nM
[2]; Table B1
  IC50: 20 nM
[3]; Table B1
  IC50: 40 nM
[4]; [5]
  ALK % of inhibition at a concentration of 500 nM or 1 mM: 34%
TYK2; Table B1
  IC50: 54 nM

## [O-][S+]1Cc2cccc(c2)Nc2nc(ncc2Cl)Nc2cccc1c2 (centres unmarked) [Example D3, 6-Chloro-15-thia-2,4,8,22-tetraazatetracyclo[14.3.1.1(3,7).1(9,13)]docosa-1(20),3(22),4,6,9(21),10,12,16,18-nonaene 15-oxide trifluoroacetate]
[1]; Table D1
  IC50: 6.3 nM
[2]; Table D1
  IC50: 25 nM
[3]; Table D1
  IC50: 13 nM
[4]; 90 μM ATP
  IC50: 1110 nM
TYK2; Table D1
  IC50: 40 nM

## CN(Cc1ccc2cc1CCc1cncc(c1)Nc1ncc(Cl)c(n1)N2)CC1CCN(S(=O)(=O)c2ccccc2)CC1 [Example B341, 1-[6-Chloro-2,4,8,18,22-pentaazatetracyclo[14.3.1.1(3,7).1(9,13)]docosa-1(20),3(22),4,6,9(21),10,12,16,18-nonaen-12-yl]-N-methyl-N-{[1-(phenylsulfonyl)piperidin-4-yl]methyl}methanamine tris(trifluoroacetate)]
[1]; Table B1
  IC50: 146 nM
[2]; Table B1
  IC50: 13 nM
[3]; Table B1
  IC50: > 400 nM
[4]; [6]
  ALK % of inhibition at a concentration of 500 nM or 1 mM: 27%
TYK2; Table B1
  IC50: > 400 nM

## O=C(CC1CCN(C(=O)Nc2ccc(F)cc2)CC1)Nc1ccc2cc1CCc1cncc(c1)Nc1ncc(Cl)c(n1)N2 [Example A148, 4-(2-{[6-Chloro-2,4,8,18,22-pentaazatetracyclo[14.3.1.1(3,7).1(9,13)]docosa-1(20),3(22),4,6,9(21),10,12,16,18-nonaen-12-yl]amino}-2-oxoethyl)-N-(4-fluorophenyl)piperidine-1-carboxamide bis(trifluoroacetate)]
[1]; [7]
  IC50: 1.5 nM
[2]; [8]
  IC50: 0.2 nM
[3]; [9]
  IC50: > 100 nM
[4]; [10]
  ALK % of inhibition at a concentration of 500 nM or 1 mM: 42%
TYK2
  IC50: 3.9 nM

## O=C(CN1CCN(c2nc3cccnc3o2)CC1)Nc1ccc2cc1CCc1cncc(c1)Nc1ncc(Cl)c(n1)N2 [Example A118, N-[6-Chloro-2,4,8,18,22-pentaazatetracyclo[14.3.1.1(3,7).1(9,13)]docosa-1(20),3(22),4,6,9(21),10,12,16,18-nonaen-12-yl]-2-(4-[1,3]oxazolo[5,4-b]pyridin-2-ylpiperazin-1-yl)acetamide tris(trifluoroacetate)]
[1]; [7]
  IC50: 16 nM
[2]; [8]
  IC50: 0.9 nM
[3]; [9]
  IC50: 150 nM
[4]; [10]
  ALK % of inhibition at a concentration of 500 nM or 1 mM: 29%
TYK2
  IC50: 20 nM

## O=C(Nc1ccc2cc1CCc1cncc(c1)Nc1ncc(Cl)c(n1)N2)N1CCN(c2ccc(Cl)cc2)CC1 [Example B307, N-[6-Chloro-2,4,8,18,22-pentaazatetracyclo[14.3.1.1(3,7).1(9,13)]docosa-1(20),3(22),4,6,9(21),10,12,16,18-nonaen-12-yl]-4-(4-chlorophenyl)piperazine-1-carboxamide tris(trifluoroacetate)]
[1]; Table B1
  IC50: 217 nM
[2]; Table B1
  IC50: 36 nM
[3]; Table B1
  IC50: > 400 nM
[4]; [6]
  ALK % of inhibition at a concentration of 500 nM or 1 mM: 74%
TYK2; Table B1
  IC50: 66 nM

## O=S1(=O)CCOc2cccc(c2)Nc2ncc(Cl)c(n2)Nc2cccc1c2 [Example D14, 6-Chloro-17-oxa-14-thia-2,4,8,24-tetraazatetracyclo[16.3.1.1(3,7).1(9,13)]tetracosa-1(22),3(24),4,6,9(23),10,12,18,20-nonaene 14,14-dioxide trifluoroacetate]
[1]; Table D1
  IC50: 2.2 nM
[2]; Table D1
  IC50: 2.2 nM
[3]; Table D1
  IC50: 11 nM
[4]; 90 μM ATP
  IC50: 732 nM
TYK2; Table D1
  IC50: 5 nM

## O=C(CC1CCN(C(=O)c2ncco2)CC1)Nc1ccc2cc1CCc1cncc(c1)Nc1ncc(Cl)c(n1)N2 [Example A139, N-[6-Chloro-2,4,8,18,22-pentaazatetracyclo[14.3.1.1(3,7).1(9,13)]docosa-1(20),3(22),4,6,9(21),10,12,16,18-nonaen-12-yl]-2-[1-(1,3-oxazol-2-ylcarbonyl)piperidin-4-yl]acetamide bis(trifluoroacetate)]
[1]; [7]
  IC50: 7.6 nM
[2]; [8]
  IC50: 1.1 nM
[3]; [9]
  IC50: 178 nM
[4]; [10]
  ALK % of inhibition at a concentration of 500 nM or 1 mM: 27%
TYK2
  IC50: 3.4 nM

## Cc1cc(C(=O)N2CCC(CC(=O)Nc3ccc4cc3CCc3cncc(c3)Nc3ncc(Cl)c(n3)N4)CC2)no1 [Example A101, N-[6-Chloro-2,4,8,18,22-pentaazatetracyclo[14.3.1.1(3,7).1(9,13)]docosa-1(20),3(22),4,6,9(21),10,12,16,18-nonaen-12-yl]-2-{1-[(5-methylisoxazol-3-yl)carbonyl]piperidin-4-yl}acetamide bis(trifluoroacetate)]
[1]; [7]
  IC50: 10 nM
[2]; [8]
  IC50: 0.5 nM
[3]; [9]
  IC50: 128 nM
[4]; [10]
  ALK % of inhibition at a concentration of 500 nM or 1 mM: 29%
TYK2
  IC50: 3.4 nM

## O=C(Nc1ccc(Cl)nc1)Nc1ccc2cc1CCc1cccc(c1)Nc1ncc(Cl)c(n1)N2 [Example B121, N-(6-Chloropyridin-3-yl)-N′-[6-chloro-2,4,8,22-tetraazatetracyclo[14.3.1.1(3,7).1(9,13)]docosa-1(20),3(22),4,6,9(21),10,12,16,18-nonaen-12-yl]urea bis(trifluoroacetate)]
[1]; Table B1
  IC50: 7.9 nM
[2]; Table B1
  IC50: 2.2 nM
[3]; Table B1
  IC50: 50 nM
[4]; [5]
  ALK % of inhibition at a concentration of 500 nM or 1 mM: 39%
TYK2; Table B1
  IC50: 19 nM

## N#Cc1cccc(C(=O)N2CCC(CC(=O)Nc3ccc4cc3CCc3cncc(c3)Nc3ncc(Cl)c(n3)N4)CC2)c1 [Example A191, N-[6-Chloro-2,4,8,18,22-pentaazatetracyclo[14.3.1.1(3,7).1(9,13)]docosa-1(20),3(22),4,6,9(21),10,12,16,18-nonaen-12-yl]-2-[1-(3-cyanobenzoyl)piperidin-4-yl]acetamide bis(trifluoroacetate)]
[1]; [7]
  IC50: > 200 nM
[2]; [8]
  IC50: 67 nM
[3]; [9]
  IC50: > 200 nM
[4]; [10]
  ALK % of inhibition at a concentration of 500 nM or 1 mM: 25%
TYK2
  IC50: > 200 nM

## NS(=O)(=O)N1CCC(C(=O)Nc2ccc3cc2CCc2cccc(c2)Nc2ncc(Cl)c(n2)N3)CC1 [Example A72, 1-(Aminosulfonyl)-N-[6-chloro-2,4,8,22-tetraazatetracyclo[14.3.1.1(3,7).1(9,13)]docosa-1(20),3(22),4,6,9(21),10,12,16,18-nonaen-12-yl]piperidine-4-carboxamide trifluoroacetate]
[1]; [7]
  IC50: 3.7 nM
[2]; [8]
  IC50: 18 nM
[3]; [9]
  IC50: 10 nM
[4]; [10]
  ALK % of inhibition at a concentration of 500 nM or 1 mM: 34%
TYK2
  IC50: 16 nM

## O=C(Nc1nnn[nH]1)Nc1ccc2cc1CCc1cccc(c1)Nc1ncc(Cl)c(n1)N2 [Example B251, N-[6-Chloro-2,4,8,22-tetraazatetracyclo[14.3.1.1(3,7).1(9,13)]docosa-1(20),3(22),4,6,9(21),10,12,16,18-nonaen-12-yl]-N′-1H-tetrazol-5-ylurea trifluoroacetate]
[1]; Table B1
  IC50: 37 nM
[2]; Table B1
  IC50: 53 nM
[3]; Table B1
  IC50: 4.2 nM
[4]; [5]
  ALK % of inhibition at a concentration of 500 nM or 1 mM: 44%
TYK2; Table B1
  IC50: 14 nM
